Source: patent US20140350097A1, “TREATMENT OF HYPOTENSION ASSOCIATED WITH HEMODIALYSIS” (priority 2013, published 2014)

Experiments:
[1] = Water solubility and isotonicity of Sodium MGD; assay type: physicochemical
Experimental: Sodium MGD is a white to slightly yellowish powder with 1.5 molecules of co-crystallized water, and is water soluble up to 35% w/v at approximately 25° C. A 4.5% (w/v) solution of the Sodium MGD in water without any additives affords a near isotonic solution.

mice = assay: Blood pressure studies in mice; assay type: in vivo
Source text: The lack of effect on normal blood pressure is advantageous for NOX-100 as a small molecule .NO scavenger.

[2] = tested on: rat model of shock induced by hemorrhage; assay: Hemorrhagic shock rat model; assay type: in vivo; conditions: rats, 0.1 mmol/kg/hour
Source text: Treatment of these rats with NOX-100 (0.1 mmol/kg/hour) reduced the blood volume needed to maintain the blood pressure during shock and improved mean arterial pressure after resuscitation.

male Wistar rats = assay: Preliminary acute single dose toxicity study in male Wistar rats; assay type: in vivo, rat; conditions: single I.V. 30-608 mg/kg or S.C. 250-1,000 mg/kg, 7-day observation
Experimental: NOX-100 has been evaluated in a number of toxicological studies, including acute (single-dose in rats and dogs; 4-day dosing in rats and dogs), subacute (14-day dosing in rats and dogs) studies, and in vitro mutagenicity testing.
In a preliminary acute single dose study, male Wistar rats were administered NOX-100 intravenously (I.V.) at doses of 30-608 mg/kg or subcutaneous (S.C.) doses of 250-1,000 mg/kg. Each dosing was followed by a 7-day observation period. […] Another group of male Wistar rats were administered NOX-100 with Fe^2+ as a single SC dose at 250-1,000 mg/kg. […] Without wishing to be bound by any theory, it is believed that this discoloration was due to the color of the compound at the high dose.

rats = assay: 4-day infusion toxicity in rats (2000 mg/kg over 2 hours); assay type: in vivo, rat
Experimental: The high dose of 2000 mg/kg of NOX-100 administered over a period of 2 hours was again tested in a group of rats for 4 consecutive days. […] Mitotic figures in basophilic tubules were also noted. These changes were considered treatment related. […] It appeared that female rats had lower plasma concentrations of NOX-100 compared to males.

Sprague-Dawley rats = assay: 14-day infusion toxicity in Sprague-Dawley rats; assay type: in vivo
Experimental: The safety profile of NOX-100 was further evaluated in Sprague-Dawley rats (10/sex/group for the main study and 24/sex/group for the satellite groups for plasma concentration determination). Rats were administered with NOX-100 at 0, 100, 500 or 2000 mg/kg/day by infusion over a period of 8 hours for 14 days.
The dose of 100 mg/kg/day is considered the no-effect-level in rats.

[3] = Preliminary intravenous pharmacokinetics in mice; assay type: in vivo, mouse; conditions: bolus injection 30 mg/kg i.v.
Experimental: (§1) The pharmacokinetics of intravenously administered NOX-100 was evaluated in mice, rats and dogs. Preliminary pharmacokinetic studies were conducted using a bolus injection of 30 mg/kg. Post injection, the drug was rapidly eliminated in all three species in a bi-exponential manner with a beta-t½ of approximately 6, 30 and 40 minutes in the mouse, rat and dog, respectively. […] The volume of distribution was around 20-30% of body weight and was similar in the three species. This is likely due to the hydrophilic nature of the drug and may reflect the distribution of NOX-100 primarily in the extracellular space.

[4] = Preliminary intravenous pharmacokinetics in dogs; assay type: in vivo, dog; conditions: bolus injection 30 mg/kg i.v.
Experimental: as §1

[5] = tested on: subjects with hypotensive episodes during hemodialysis; assay: Human clinical dose escalation study in hemodialysis subjects with hypotensive episodes; assay type: in vivo
Source text: In that study, the drug was given to subjects who had at least 3 hypotensive episodes during hemodialysis in the prior month. Subjects received the drug during hemodialysis when systolic blood pressure (SBP) had fallen at least 15 mmHg. The following trends appeared between drug and placebo periods. […] The SBP over this time period averaged 4 mmHg higher for drug than for placebo with a standard deviation of 16 mmHg. […] As hypotension worsened, the patients developed several different symptoms that were not predictable for any given patient. Clinical interventions intended to relieve hypotension were also variable and were applied at inconsistent times from patient to patient. This was a result of long standing practices established by patient and nurse to avoid severe symptoms. For example, patients would sometimes request an intervention that they thought would be helpful and nurses would sometimes institute an intervention when they thought that a blood pressure trend might soon lead to symptoms. It was felt unethical to intervene in this process, since the aim was to avoid patient discomfort.

[6] = Pharmacokinetics after bolus administration in hemodialysis subjects; assay type: in vivo, human
Source text: FIG. 1 depicts the results of plasma Cmax of NOX-100 after bolus administration in hemodialysis subjects as a function of dose. See Example 4.
FIG. 2 depicts the results of Area Under the Curve (AUC) of NOX-100 after bolus administration in hemodialysis subjects as a function of dose. See Example 4.
FIG. 3 depicts a histogram of plasma clearance of NOX-100 during dialysis after bolus administration in hemodialysis subject as a function of dose. Legend (x-axis, left to right): 0.33, 1, 3, 9, 25 and 50, mg/kg NOX-100. See Example 4.

[7] = 24 hours after hemorrhagic shock
[8] = 2000 mg/kg over 2 hours, 4 consecutive days
[9] = females, 500 mg/kg/day, 14 days

Question: With CN(C[C@H](O)[C@@H](O)[C@H](O)[C@H](O)CO)C(=S)S [NOX-100, N-methyl-D-glucamine dithiocarbamate] as the compound, how does the water solubility ([1]; approximately 25° C.) read?
Answer: up to 35 % w/v

Question: And the “concentration of solution in water that is near isotonic” value ([1]; in water without any additives)?
Answer: 4.5 % (w/v)

Question: And the “effect on hypotensive effect of nitroprusside” value (mice; co-administration with sodium nitroprusside (.NO donor))?
Answer: reduced the hypotensive effect of nitroprusside

Question: And the “effect on blood pressure” value (mice; intravenous infusion of NOX-100 alone)?
Answer: did not affect blood pressure

Question: And the “blood volume needed to maintain the blood pressure during shock” value [2]?
Answer: reduced

Question: What about the “mean arterial pressure after resuscitation” value [2] of the same compound?
Answer: improved

Question: And the “elevation of serum ornithine carbamoyltransferase (indicator of hepatic injury)” value [2, 7]?
Answer: prevented

Question: And the inflammatory gene expression [2, 7]?
Answer: prevented

Question: What about the transcription factor activation [2, 7] of the same compound?
Answer: prevented

Question: What about the “mortality and overt signs of toxicity” value (male Wistar rats) of the same compound?
Answer: no mortality or overt signs of toxicity

Question: And the “plasma concentrations in female rats compared to males” value (rats; 2000 mg/kg)?
Answer: lower

Question: And the “hemoglobin and hematocrit values” (rats; [8])?
Answer: slight decrease

Question: And the “red blood cell count” value (rats; [8])?
Answer: slight decrease

Question: What about the “animals with cortical tubular basophilia of the kidney, occasionally with tubular dilatation” value (rats; 5 males, 2000 mg/kg/day, 2-hour infusion, 4 consecutive days) of the same compound?
Answer: 5/5

Question: What about the “plasma concentrations on Day 4 compared to Day 1” value (rats; HPLC, 1 and 1.75 hours after infusion, 2000 mg/kg) of the same compound?
Answer: slightly higher

Question: What about the “mitotic figures in basophilic tubules” value (rats; males, 2000 mg/kg/day, 4 consecutive days) of the same compound?
Answer: noted

Question: What about the “microscopic findings in urinary bladder and duodenum” value (Sprague-Dawley rats; 2000 mg/kg/day, 14 days) of the same compound?
Answer: hyperplasia of the urinary bladder and increased mitotic figures and dilatation of lymphatic vessels in the duodenum

Question: And the “clinical chemistry, urinary output and kidney weight changes” value (Sprague-Dawley rats; 8-hour infusion, 14 days)?
Answer: Elevations in blood urea nitrogen and creatinine, increases in urinary output and kidney weights

Question: What about the “clinical signs of salivation” value (Sprague-Dawley rats; 8-hour infusion, 14 days) of the same compound?
Answer: noted mostly at 2000 mg/kg/day and occasionally in the lower dose groups

Question: What about the “microscopic changes in the kidney” value (Sprague-Dawley rats; 8-hour infusion, 14 days) of the same compound?
Answer: tubular epithelial basophilia, pyelitis at the papillary tip and hyperplasia of the pelvic transitional epithelium

Question: And the treatment related deaths (Sprague-Dawley rats; 100, 500 or 2000 mg/kg/day, 8-hour infusion, 14 days)?
Answer: no treatment related deaths

Question: What about the dose concentration relationship (Sprague-Dawley rats; 100-2000 mg/kg/day) of the same compound?
Answer: proportional dose concentration relationship

Question: What about the “mean plasma concentrations between 4 to 7.75 hours from the start of infusion” value (Sprague-Dawley rats; each day) of the same compound?
Answer: remained constant

Question: And the kidney weights (Sprague-Dawley rats; [9])?
Answer: increased

Question: And the “microscopic changes (kidney)” value (Sprague-Dawley rats; [9])?
Answer: only seen in one rat

Question: And the “mean plasma concentrations between Days 1, 7 and 14” value (Sprague-Dawley rats; rat, in vivo)?
Answer: similar

Question: And the “mean steady state plasma concentrations, males versus females” value (Sprague-Dawley rats; rat, in vivo)?
Answer: no differences

Question: And the no-effect-level (Sprague-Dawley rats; rats, 8-hour infusion, 14 days)?
Answer: 100 mg/kg/day

Question: And the observable toxicity (Sprague-Dawley rats; rats, doses of up to 2000 mg/kg/day, 14 consecutive days)?
Answer: little observable toxicity

Question: And the half-life ([3]; in vivo, iv, mouse, read-out: beta-t½)?
Answer: ~6 min

Question: And the volume of distribution ([3]; mice)?
Answer: 20-30 % of body weight

Question: What about the clearance ([3]; mouse, in vivo, iv, mice, read-out: clearance rate) of the same compound?
Answer: 26 mL/min/kg

Question: What about the clearance ([4]; dog, in vivo, iv, dogs, read-out: clearance rate) of the same compound?
Answer: 4.1 ± 0.6 mL/min/kg

Question: And the volume of distribution ([4]; dogs)?
Answer: 20-30 % of body weight

Question: What about the half-life ([4]; in vivo, iv, dog, read-out: beta-t½) of the same compound?
Answer: ~40 min

Question: What about the clinically significant toxicity ([5]; 7 dose escalations, 4 subjects per group) of the same compound?
Answer: did not reveal any clinically significant toxicity at any dose

Question: And the “average SBP difference, drug higher than placebo” value ([5]; 30 to 120 minutes following drug administration, standard deviation 16 mmHg)?
Answer: 4 mmHg

Question: And the “heart rate, diastolic blood pressure, number of interventions for low blood pressure or number of symptoms, drug versus placebo periods” value ([5]; hemodialysis subjects)?
Answer: no apparent differences

Question: And the “systolic blood pressure (SBP), drug versus placebo” value ([5]; three highest doses, 30 to 120 minutes following drug administration)?
Answer: trend for SBP to be higher after drug than after placebo

Question: What about the “plasma clearance during dialysis versus dose” value ([6]; 0.33-50 mg/kg, FIG. 3) of the same compound?
Answer: decreased slightly with higher doses but the difference was not statistically significant

Question: What about the “plasma Cmax versus dose” value ([6]; bolus administration, hemodialysis subjects, FIG. 1) of the same compound?
Answer: proportional to the dose

Question: And the “Area Under the Curve (AUC) versus dose” value ([6]; bolus administration, hemodialysis subjects, FIG. 2)?
Answer: proportional to the dose

Question: And the clearance ([6]; human, plasma, intravenous, averaged clearance from the 1, 9, and 50 mg/kg cohorts, read-out: plasma clearance during dialysis)?
Answer: ~3.3 mL/min/kg
